This is an account of results in patent US20150250864A1, “ANTI-CANCER VACCINES” (Board of Regents, The University of Texas System, priority 2012, published 2015).

This assay has as its system IVS cells. Put plainly: IFN-γ ELISPOT of IVS cells stimulated with HERV-K SU or TM antigen. Type of assay: cell-based, human. The following applies: ovarian cancer patient compared with normal female donor(s). An excerpt: FIGS. 2A-D. IFN-γ ELISPOT was used to determine HERV-K-specific T cell response. (FIG. 2A) More spots (red box) were detected in IVS cells (DC+KSU) from an ovarian cancer patient with moderately to poorly differentiated adenocarcinoma, in comparison to three normal female donors (ND263559, 273010, and 273011; black boxes) stimulated with a single HERV-K SU protein. […] (FIG. 2B) More spots (red box for KSU and green box for KTM) were detected in IVS cells (DC+KSU) from an ovarian cancer patient (Acc 153) with high grade papillary serous carcinoma before surgery (0 month) or after surgery (6 months), compared to one normal donor (ND 273011) stimulated one time with HERV-K SU protein. IVS cells were generated from PBMC stimulated with a single HERV-K SU or TM antigen. No spot was detected in controls using KLH as antigen. (FIG. 2C) IFN-γ spots were detected in IVS cells (1×10^5 cells loaded) from cancer patients (#816463 and #618329: blood collected 6 months after surgery) but not in a breast cancer patient with invasive ductal carcinoma (#814349, collected 6 months after surgery) or a patient (717335) with a mass (no malignancy identified), stimulated one time with either HERV-K SU (surface domain of env protein) or TM (transmembrane domain) protein. DC pulsed with KLH served as control. […]

As to keyhole limpet hemocyanin [KLH], the “number of IFN-γ spots in IVS cells” value is reported as “No spots were detected”.
